Drawing on PubChem BioAssay (NCI), this text covers GI50 and TGI for 9 compounds.

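Five compound concentrations were applied to cells in 96-well plates for 48 hours; endpoints were derived by simple linear interpolation of the resulting dose-response curve. GI50 marks 50% less growth. TGI: concentration producing complete growth inhibition.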 Bounds are passed on as bounds.

What all share (assay): NCI tumour cell line growth inhibition, 48 h
The subject of assay [1] is HS 578T breast.
Assay [2] deals with MDA-MB-435.
Assay [3] deals with MOLT-4 leukemia.
Assay [4] has as its system OVCAR-5 ovarian.
The test system of assay [5] is RPMI-8226 leukemia.
For assay [6], the system named is SK-MEL-28 melanoma.
Assay [7] concerns T-47D breast.
For assay [8], the system named is EKVX NSCLC.
Assay [9] concerns HT29 colon.
For assay [10], the system named is SNB-75 CNS.

With `CC1(C)CC2CC(C)(CN2c2ncnc3ccc(Br)cc23)C1` (stereo not given), the GI50 is 10.3 µM in assay [1]; 3.98 µM in assay [2]; 0.134 µM in [3]; 14.1 µM in [4]; 2.58 µM in assay [5]; 13.9 µM in assay [6]. Besides, the GI50 in assay [7] is 13 µM. Besides, the TGI was 30.4 µM in assay [1]; 27.7 µM in assay [2]; 11.2 µM in assay [3]; 27.1 µM in [4]; 13.5 µM in [5]; 28 µM in assay [6]. The TGI in assay [7] amounted to 31.2 µM.

On to `COc1cc(C2C(C#N)=C(N)Oc3cc4c(cc32)OCO4)cc2c1OCO2` (stereo not given), for which the GI50 in assay [8] was 0.594 µM; in assay [1] it was 0.328 µM; in assay [9] it was 0.324 µM; in assay [3], 0.935 µM; in assay [4], 1.29 µM; in assay [5] it was 0.406 µM. In addition, the GI50 was 1.57 µM in assay [6], 0.178 µM in [10] and 3.38 µM in assay [7]. For the same compound, the TGI in assay [8] is greater than 100 µM; in assay [1], greater than 100 µM; in [9] it was greater than 59.7 µM; in assay [3] it was 49.5 µM; in [4], greater than 100 µM; in assay [5], greater than 71 µM. Moreover, the TGI in [6], in [10] and in assay [7] was greater than 100 µM in each case.

As to `C=C(C)[C@@H]1CC[C@]2(C)[C@H](C=CC3=C4C[C@@](C)(CO)CC[C@]4(C)CC[C@]32C)[C@@]1(C)CCCN`, the GI50 is 1.6 µM in assay [8]; 1.8 µM in [1]; 1.63 µM in [9]; 1.78 µM in [2]; 1.71 µM in [4]; 1.82 µM in assay [6]. In addition, the GI50 in assay [10] was 1.53 µM. In addition, the TGI in assay [8] stood at 3.1 µM; in [1], 4.07 µM; in assay [9], 3.28 µM; in [2], 3.2 µM; in [4], 3.09 µM; in [6], 3.25 µM. Besides, the TGI in assay [10] was found to be 2.97 µM.

On to `O=C1c2ccccc2C(=O)c2sc(Nc3ccc(Cl)c(Cl)c3)nc21`, for which the TGI was 29.5 µM in assay [8]; 53.2 µM in [1]; 42.5 µM in assay [9]; 6.37 µM in [3]; 7.58 µM in [4]; 5 µM in [5]. Besides, the TGI in assay [6] is 20.7 µM; in [10], 26.7 µM; in assay [7] it was 22.7 µM.

As to `O=P1(O)c2ccccc2CS(=O)(=O)Cc2ccccc21`, the TGI in assay [8], in [1], in assay [9], in assay [2], in [3] and in assay [4] was greater than 100 µM in each case. In addition, the TGI in [6] and in [7] was greater than 100 µM in each case.

For the compound `CC[C@H](C)[C@H](NC(=O)C12CC(NC(C)=O)(C1)C2)C(=O)N(C)[C@H](C[C@@H](OC(C)=O)c1nc(C(=O)N[C@@H](Cc2ccccc2)C[C@H](C)C(=O)OC)cs1)C(C)C`, the GI50 in assay [8] was 1.09 µM; in [1], 0.505 µM; in assay [9], 0.0731 µM; in assay [2] it was 0.033 µM; in [3] it was 0.748 µM; in assay [4], greater than 3.89 µM. The GI50 in assay [5] is 0.0585 µM; in assay [6] it was 1.81 µM; in [10], 0.123 µM. The TGI is greater than 16.7 µM in assay [8]; greater than 9.51 µM in assay [1]; greater than 5.52 µM in [9]; 0.501 µM in [2]; greater than 16.7 µM in assay [3]; greater than 16.7 µM in [4]. Besides, the TGI in assay [5] was greater than 3.64 µM; in assay [6] it was greater than 16.7 µM; in [10] it was greater than 16.7 µM.

For `COc1ccc(-c2cncn2-c2cc(OC)c(OC)c(OC)c2)cc1F`, the GI50 was 0.153 µM in assay [8]; 0.332 µM in [1]; less than 0.01 µM in [9]; less than 0.0283 µM in assay [3]; 0.0789 µM in [4]; less than 0.01 µM in [5]. Further, the values for the GI50 in assay [6], in [10] and in assay [7] were 0.0359 µM, less than 0.0119 µM and less than 0.01 µM, respectively. In addition, the TGI was greater than 100 µM in [8]; greater than 100 µM in assay [1]; greater than 38.6 µM in assay [9]; greater than 100 µM in assay [3]; greater than 100 µM in assay [4]; 12.2 µM in assay [5]. Further, the TGI in assay [6], in assay [10] and in assay [7] was greater than 100 µM throughout.

With `N#Cc1c(Oc2ccc(F)c(NC(=O)Cc3cccc(C(F)(F)F)c3)c2)ccc2nc(NC(=O)C3CC3)sc12`, the GI50 in assay [1] was 0.534 µM; in [9], 0.0533 µM; in assay [2], 0.137 µM; in [3], 0.673 µM; in assay [4], 0.412 µM; in assay [5], 0.72 µM. Also, the GI50 in assay [6] was 0.0292 µM; in [10] it was 1.1 µM; in assay [7] it was 3.22 µM. In addition, the TGI in [1] was 3.33 µM; in [9] it was greater than 100 µM; in assay [2], greater than 100 µM; in [3] it was greater than 100 µM; in assay [4], greater than 100 µM; in [5], greater than 100 µM. Moreover, the TGI in assay [6], in assay [10] and in assay [7] was greater than 100 µM each time.

Consider `O=C(NO)c1cnc(N2CCN(S(=O)(=O)c3ccc4ccccc4c3)CC2)nc1`, for which the GI50 is 0.101 µM in assay [1]; 0.0344 µM in assay [9]; 0.0456 µM in assay [2]; 0.0424 µM in assay [3]; 0.0394 µM in assay [4]; 0.0208 µM in assay [5]. Also, the figures for the GI50 in [6], in assay [10] and in assay [7] were 0.062 µM, 0.0265 µM and 0.0227 µM, respectively. Moreover, the TGI is greater than 47.3 µM in [1]; 2.11 µM in assay [9]; 0.394 µM in assay [2]; greater than 41.3 µM in assay [3]; 10.6 µM in assay [4]; 17.6 µM in assay [5]. For the same compound, the TGI in assay [6] stood at 1.15 µM; in assay [10], 10.8 µM; in assay [7], 1.79 µM.
